Results on 2 molecules are retold here after US6251627A (priority 1998, dated 2001).

Assay [1] deals with T1, K^b sol (soluble H-2K^b with murine β-2 microglobulin) (Mus musculus, UniProt P01901).
T1 construct: The cDNAs encoding K^b α1α2α3 domains (274 residues) and murine β-2 microglobulin (99 residues); made in house; host or cells: Drosophila S2/M3 cells, secreted into serum-free medium
T1 sequence (P01901 22-295): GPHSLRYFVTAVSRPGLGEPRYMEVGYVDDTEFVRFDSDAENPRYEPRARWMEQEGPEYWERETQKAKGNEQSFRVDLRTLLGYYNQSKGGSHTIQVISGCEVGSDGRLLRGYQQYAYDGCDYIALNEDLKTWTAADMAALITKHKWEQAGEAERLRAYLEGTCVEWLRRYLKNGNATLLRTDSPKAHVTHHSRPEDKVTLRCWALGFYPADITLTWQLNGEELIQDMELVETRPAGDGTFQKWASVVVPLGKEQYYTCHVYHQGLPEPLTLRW
T1 sequence (P01887 21-119 partner): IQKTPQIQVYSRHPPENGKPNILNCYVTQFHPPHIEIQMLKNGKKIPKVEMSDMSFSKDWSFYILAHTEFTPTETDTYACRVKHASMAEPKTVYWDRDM
Put plainly: biochemical. The assay is classed as binding.

A further assay deals with B3/CD8 T-cell hybridoma. Put plainly: antigen presentation assay with B3/CD8 T-cell hybridoma (IL-2 by CTLL 3H thymidine incorporation). The assay is classed as cell-based, mouse. Particulars: Drosophila cells transfected with K^b/β2; peptide in culture medium or protein osmotically loaded. As to the method:
Osmotic loading of SC2 and 3T3 cells with ovalbumin protein was carried out as described by Moore, et al., Cell 54: 777-785 (1988). The assay procedure is as follows. In a 96-well dish, 1×10^5 Drosophila cells (with or without peptide/protein loaded) or 3T3 cells were cocultured with 1×10^5 B3/CD8 T-cell hybridoma cells in 200 μl of RPMI media supplemented with 10% fetal bovine serum. After 24 hours of incubation, 100 μl of the supernatant from these cultures was added to 100 μl of RPMI containing 5,000 CTLL cells. The cells were cocultured for 24 hours at 37° C. when 1 μCi of ^3 H thymidine (Amersham) was added. After a further incubation of 15 hours at 37° C., the incorporation of radiolabel into the CTLL cells was determined by scintillation counting.
Assays conducted with murine MHC also verified that the insect cells are capable of loading peptide onto the Class I molecules. Cells expressing as few as 200-500 MHC molecules containing a particular antigen can be detected by a T-cell. […] Upon antigenic stimulation, B3/CD8 produces IL-2, measured by ^3 H thymidine incorporation in IL-2-dependenT-cell line CTLL (Gillis, et al., J. Immunol. 120: 2027 91978)). Thus, by measuring the amount of IL-2 produced, one can assay for T-cell recognition. […]
For orientation: Dividing cells build labelled thymidine or BrdU into new DNA.

As usually defined, the Kd is the equilibrium constant for the complex coming apart. The molecule `CC(C)C[C@H](NC(=O)CNC(=O)[C@H](CCC(N)=O)NC(=O)[C@H](Cc1ccc(O)cc1)NC(=O)[C@@H](NC(=O)[C@H](Cc1ccc(O)cc1)NC(=O)CNC(=O)[C@@H](N)CCCNC(=N)N)C(C)C)C(=O)O` [VSV-8] showed a Kd in assay [1] of 3.7 nM.

B1: ovalbumin (protein, UniProt P01012 2-386, looked up)
Ovalbumin: GSIGAASMEFCFDVFKELKVHHANENIFYCPIAIMSALAMVYLGAKDSTRTQINKVVRFDKLPGFGDSIEAQCGTSVNVHSSLRDILNQITKPNDVYSFSLASRLYAEERYPILPEYLQCVKELYRGGLEPINFQTAADQARELINSWVESQTNGIIRNVLQPSSVDSQTAMVLVNAIVFKGLWEKAFKDEDTQAMPFRVTEQESKPVQMMYQIGLFRVASMASEKMKILELPFASGTMSMLVLLPDEVSGLEQLESIINFEKLTEWTSSNVMEERKIKVYLPRMKMEEKYNLTSVLMAMGITDVFSSSANLSGISSAESLKISQAVHAAHAEINEAGREVVGSAEAGVDAASVSEEFRADHPFLFCIKHIATNAVLFFGRCVSP
notes: ovalbumin (Sigma) osmotically loaded into the cells
For the molecule B1, the “T-cell recognition (IL-2 production by B3/CD8)” value with B3/CD8 T-cell hybridoma is listed as “no recognition occurred”.
